Reference: ChEMBL document CHEMBL1201862, “PubChem BioAssay data set” (2004)
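Growth conditions: 96-well plates. Treatment: test compound, 48 hours, 5 concentrations. Analysis: linear interpolation between bracketing concentrations; unreached endpoints set to highest concentration. Abbreviation: GI50, concentration required for 50% inhibition of growth.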 Calls of active or inactive are those of the source. Rule as the data show it: active = GI50 up to about 1.1 µM and inactive = higher.

What was measured:
Experiment in all cases: DTP human tumour cell line panel, 48 h
SNB-19 = test system: SNB-19
SR = test system: SR
MCF7 = test system: MCF7
A549 = test system: A549
NCI-H23 = test system: NCI-H23
PC-3 = test system: PC-3
K562 = test system: K562
UACC-62 = test system: UACC-62
CCRF-CEM = test system: CCRF-CEM
SNB-75 = test system: SNB-75
SW-620 = test system: SW-620
UO-31 = test system: UO-31
NCI-H460 = test system: NCI-H460
TK-10 = test system: TK-10
ACHN = test system: ACHN
MOLT-4 = test system: MOLT-4
SN12C = test system: SN12C
MDA-MB-435 = test system: MDA-MB-435
CAKI-1 = test system: CAKI-1

SMILES	GI50 (SNB-19)	GI50 (SR)	GI50 (MCF7)	GI50 (A549)	GI50 (NCI-H23)	GI50 (PC-3)	GI50 (K562)	GI50 (UACC-62)	GI50 (CCRF-CEM)	GI50 (SNB-75)	GI50 (SW-620)	GI50 (UO-31)	GI50 (NCI-H460)	GI50 (TK-10)	GI50 (ACHN)	GI50 (MOLT-4)	GI50 (SN12C)	GI50 (MDA-MB-435)	GI50 (CAKI-1)
COC(NC(=O)Nc1ccc(C)cc1)(C(F)(F)F)C(F)(F)F	23.7 µM (inactive)	30.9 µM (inactive)	41.3 µM (inactive)	34.8 µM (inactive)	30.1 µM (inactive)	13.9 µM (inactive)	8.39 µM (inactive)	10.6 µM (inactive)	2.67 µM (inactive)	28.1 µM (inactive)	20.4 µM (inactive)	17.5 µM (inactive)	32 µM (inactive)	42.8 µM (inactive)	24 µM (inactive)	9.08 µM (inactive)	28.1 µM (inactive)	30.9 µM (inactive)	
COc1c2c(cc3nc4ccccc4nc13)CC[C@H](NC(C)=O)c1cc(=O)c(SC)ccc1-2	0.446 µM (active)	0.322 µM (active)	0.327 µM (active)	4.29 µM (inactive)	0.238 µM (active)	0.614 µM (active)	0.29 µM (active)	0.437 µM (active)	0.532 µM (active)		0.582 µM (active)	5.09 µM (inactive)	0.933 µM (active)	8.07 µM (inactive)	4.15 µM (inactive)	0.555 µM (active)	2.79 µM (inactive)	0.132 µM (active)	5.62 µM (inactive)
COC(=O)/C(C)=N/N=C(\S)SC		49.7 µM (inactive)	35.4 µM (inactive)		45.6 µM (inactive)	36.5 µM (inactive)	75 µM (inactive)		0.0428 µM (active)		44.3 µM (inactive)	36.7 µM (inactive)	26.9 µM (inactive)	95.5 µM (inactive)	34.1 µM (inactive)	55.1 µM (inactive)		60.5 µM (inactive)	35.2 µM (inactive)
CC(=O)N(CN1C(=O)CCC1C(=O)O)c1cccc(O)c1 (stereo not drawn)	> 100 µM (inactive)		> 100 µM (inactive)	> 100 µM (inactive)	> 100 µM (inactive)	> 100 µM (inactive)	> 100 µM (inactive)	> 100 µM (inactive)	> 100 µM (inactive)	> 100 µM (inactive)	> 100 µM (inactive)	> 100 µM (inactive)	> 100 µM (inactive)	> 100 µM (inactive)	> 100 µM (inactive)	> 100 µM (inactive)	> 100 µM (inactive)	> 100 µM (inactive)	> 100 µM (inactive)
COC1CC(OC2OC(CO)C(O)C(O)C2O)/C(=C\C#N)C(O)C1OC (stereo not drawn)	> 100 µM (inactive)	> 100 µM (inactive)	> 100 µM (inactive)	> 100 µM (inactive)	> 100 µM (inactive)	> 100 µM (inactive)		> 100 µM (inactive)	> 100 µM (inactive)		> 100 µM (inactive)	> 100 µM (inactive)	> 100 µM (inactive)	> 100 µM (inactive)	> 100 µM (inactive)	> 100 µM (inactive)	> 100 µM (inactive)	> 100 µM (inactive)	> 100 µM (inactive)
CSc1c(C(=O)Nc2ccc(C)cc2)c(N)n(N)c(=O)c1C#N	> 100 µM (inactive)	> 100 µM (inactive)	> 100 µM (inactive)	> 100 µM (inactive)	> 100 µM (inactive)	> 100 µM (inactive)	> 100 µM (inactive)	> 100 µM (inactive)	> 100 µM (inactive)	> 100 µM (inactive)	> 100 µM (inactive)	60.1 µM (inactive)	> 100 µM (inactive)	> 100 µM (inactive)		> 100 µM (inactive)	> 100 µM (inactive)	> 100 µM (inactive)	> 100 µM (inactive)
CC1C2CCC3C(O)C2(CC(O)C2(O)C1CC(O)C2(C)C)CC3(C)O (stereo not drawn)	> 100 µM (inactive)	> 100 µM (inactive)	> 100 µM (inactive)	> 100 µM (inactive)	> 100 µM (inactive)	> 100 µM (inactive)	> 100 µM (inactive)	> 100 µM (inactive)	> 100 µM (inactive)		> 100 µM (inactive)	> 100 µM (inactive)	> 100 µM (inactive)	> 100 µM (inactive)	> 100 µM (inactive)	> 10 µM (inactive)	> 100 µM (inactive)	> 100 µM (inactive)	> 100 µM (inactive)
Cc1nnc(Nc2ccccc2)o1	> 100 µM (inactive)	> 100 µM (inactive)	> 100 µM (inactive)	> 100 µM (inactive)	> 100 µM (inactive)	> 100 µM (inactive)	> 100 µM (inactive)	> 100 µM (inactive)	> 100 µM (inactive)	> 100 µM (inactive)	> 100 µM (inactive)	> 100 µM (inactive)		> 100 µM (inactive)	> 100 µM (inactive)	> 100 µM (inactive)	> 100 µM (inactive)	> 100 µM (inactive)	> 100 µM (inactive)
COc1ccc(C#Cn2nnc3ccccc32)cc1	> 100 µM (inactive)	> 100 µM (inactive)	41.8 µM (inactive)	> 100 µM (inactive)	> 100 µM (inactive)	86.7 µM (inactive)	> 100 µM (inactive)	> 100 µM (inactive)			> 100 µM (inactive)	2.15 µM (inactive)	> 100 µM (inactive)	> 100 µM (inactive)	> 100 µM (inactive)	71.6 µM (inactive)	> 100 µM (inactive)	> 100 µM (inactive)	32.1 µM (inactive)
COc1ccc2c(c1OC)CN1CCc3cc4c(cc3C1C2)OCO4 (stereo not drawn) [TETRAHYDROBERBERINE]	> 100 µM (inactive)	> 100 µM (inactive)	> 100 µM (inactive)	> 100 µM (inactive)	> 100 µM (inactive)	> 100 µM (inactive)	80 µM (inactive)	> 100 µM (inactive)		> 100 µM (inactive)	> 100 µM (inactive)	> 100 µM (inactive)	61 µM (inactive)	> 100 µM (inactive)	> 100 µM (inactive)	> 100 µM (inactive)	> 100 µM (inactive)	> 100 µM (inactive)	> 100 µM (inactive)
COC(=O)c1c(C)cccc1C1CN=NC12Cc1cc(C)cc(C)c1C2=O (stereo not drawn)	73.3 µM (inactive)		6.85 µM (inactive)	37.1 µM (inactive)	20.7 µM (inactive)	30.1 µM (inactive)	30.2 µM (inactive)	70.6 µM (inactive)	23 µM (inactive)	27 µM (inactive)	48.5 µM (inactive)	28.4 µM (inactive)	32.1 µM (inactive)	32.4 µM (inactive)	41.5 µM (inactive)	32.1 µM (inactive)	41.8 µM (inactive)	37.2 µM (inactive)	24.9 µM (inactive)
COc1ccc(/C=C2\CCC(CNc3ccc(Br)cc3)C2=O)cc1 (stereo not drawn)	> 100 µM (inactive)	24.2 µM (inactive)	21.5 µM (inactive)	93.8 µM (inactive)	> 100 µM (inactive)	> 100 µM (inactive)	20 µM (inactive)	34.8 µM (inactive)	31.8 µM (inactive)		67.3 µM (inactive)	73.8 µM (inactive)	76 µM (inactive)	57.5 µM (inactive)	15.3 µM (inactive)	34.1 µM (inactive)	10.2 µM (inactive)	> 100 µM (inactive)	> 100 µM (inactive)
COc1cccc(-c2nnc3c(-c4ccccc4)nc4ccccc4n23)c1	> 100 µM (inactive)	3.9 µM (inactive)	14.4 µM (inactive)	21.2 µM (inactive)	30.1 µM (inactive)	16.4 µM (inactive)	4.11 µM (inactive)	75.7 µM (inactive)	11.2 µM (inactive)		16.4 µM (inactive)	10.5 µM (inactive)	10.3 µM (inactive)	36.3 µM (inactive)	> 62.2 µM (inactive)	9.53 µM (inactive)	73.1 µM (inactive)	2.91 µM (inactive)	33.6 µM (inactive)
CC1(C)OP(=O)(c2ccccc2)C=C1Sc1ccc([N+](=O)[O-])cc1[N+](=O)[O-] (stereo not drawn)	> 100 µM (inactive)	17.3 µM (inactive)	41.5 µM (inactive)	> 100 µM (inactive)	77.6 µM (inactive)	65.3 µM (inactive)	27 µM (inactive)	35 µM (inactive)		> 100 µM (inactive)	65.5 µM (inactive)		> 100 µM (inactive)	> 100 µM (inactive)	> 100 µM (inactive)		45.9 µM (inactive)	70 µM (inactive)	> 100 µM (inactive)
CC1=C(O)C(O)=C(C2=C(O)C(O)=C(C)C(=O)C2=O)C(=O)C1=O	50.5 µM (inactive)	> 100 µM (inactive)	45.3 µM (inactive)		40.7 µM (inactive)	60.8 µM (inactive)	45.7 µM (inactive)	18.6 µM (inactive)	60 µM (inactive)	76.2 µM (inactive)	68.9 µM (inactive)	39.1 µM (inactive)	40.6 µM (inactive)		28.1 µM (inactive)	98.2 µM (inactive)	45 µM (inactive)	37.8 µM (inactive)	40.7 µM (inactive)
COC(=O)c1ccc(NCC2=CC(=O)C=CC2=O)cc1	14.8 µM (inactive)	5.26 µM (inactive)	14.2 µM (inactive)	22.7 µM (inactive)	14.5 µM (inactive)	12.6 µM (inactive)	2.69 µM (inactive)	14.6 µM (inactive)	1.67 µM (inactive)	16.3 µM (inactive)	3.75 µM (inactive)	7.08 µM (inactive)		10.8 µM (inactive)	14 µM (inactive)	3.05 µM (inactive)		11.3 µM (inactive)	2.4 µM (inactive)
